According to publication PMC10673995, “Discovery of a novel cardiac-specific myosin modulator using artificial intelligence-based virtual screening” (Nature Communications, 2023):
Several values for one entry are separate records, joined by “and”; a condition that tells them apart may be missing. Equal entries are not always repeated. Where two headings read alike, the source gives them in different places.

Tests used:
[1] = tested on: isolated cardiac muscle fibers; details: read-out: reported IC50 for force inhibition; cited from earlier work
[2] = tested on: slow skeletal muscle (Soleus) myofibrils; test: Myofibrillar ATPase, slow skeletal myofibrils; type: biochemical, marmoset (Callithrix jacchus)
Excerpt: Next we tested the myosin isoform specificity of F10 by measuring its effect on the ATPase activity of myofibrils isolated from ventricle, and fast (Tiberialis Anterior) and slow skeletal muscles (Soleus) isolated from marmoset (Callithrix jacchus).
Demembranated myofibrils were freshly prepared from bovine ventricle on the day of the experiments as previously described[25],[63]. Marmoset ventricular and skeletal muscle tissue was kindly provided by the Biological Service Unit of King’s College London. Steady-state myofibrillar ATPase activity was measured using an identical protocol as described above but in myofibril assay buffer (composition in mmol L^−1: 20 MOPS pH 7, 50 KCl, 0.1 CaCl2, 1 DTT) with a final bovine CMF concentration of 1 mg mL^−1.

[3] = tested on: phospholipid biosynthesis in mammalian cells; parameters: method as in PubChem; details: ref PubChem; cited from earlier work
[4] = target: bovine cardiac myofibrils (CMF) (Bos taurus, UniProt Q9BE39); test: Bovine cardiac myofibrillar ATPase dose-response (F10 and derivatives)
[5] = tested on: neuropeptide receptor NPYLR7; parameters: method as in PubChem; details: ref PubChem; cited from earlier work
[6] = target: T1, bovine β-cardiac myosin S1 (Bos taurus, UniProt Q9BE39); test: Cardiac acto-myosin S1 ATPase (NADH-coupled); type: biochemical; parameters: myosin S1 ATPase activity vs F-actin concentration: unit not given here; details: for myosin S1 ATPase activity vs F-actin concentration: 100 μmol/L F10, Experiment # 1-9
T1 construct: IC50 for the ATPase activity of the isolated myosin motor domain; from tissue; host or cells: bovine ventricle
Procedure: Bovine cardiac myosin S1 was prepared from bovine ventricle as previously described. Rabbit skeletal F-actin was purchased from Cytoskeleton Inc. and prepared for experiments according to manufacturer’s instructions.
20 μL of enzyme mix in buffer A (composition in mmol L^−1: 10 MOPS, 0.1 EGTA, 1 DTT, pH 7) containing 500 nmol L^−1 bovine cardiac myosin S1, 40 U mL^−1 lactate dehydrogenase and 400 U mL^−1 pyruvate kinase were dispensed into a black 96-well half area plate (Greiner). […] Each assay plate contained five wells with DMSO only (negative control) and five wells with 10 μmol L^−1 Blebbistatin (positive control). Plates were incubated on a plate shaker at 30 °C for 10 min at 2000 rpm. […] 96-channel pipette. Plates were briefly mixed by shaking at 5000 rpm on a plate shaker and spun down at 3000 g for 10 s. NADH fluorescence intensity was measured for each well using a ClarioStar Plate Reader for 10 min every 30 sec at 30 °C with the following settings: excitation at 380 nm with a 10 nm bandwidth and emission at 470 nm with a 24 nm bandwidth. Data were recorded with BMG Labtech Reader Control Software v6.20.

[7] = tested on: demembranated rat ventricular trabeculae; test: Mechanics of demembranated ventricular trabeculae (force, pCa50, ktr); parameters: Isometric force, individual trabeculae / force re-development, Representative Traces: unit not given here; details: for Normalized force, Force-pCa Titration / force re-development, Representative Traces: 20 μM F10; for Normalized Force (Tension): pCa 5.9
Procedure: Wistar rats (Rattus norvegicus, male, 200–250 g, 7 weeks old) were killed by cervical dislocation without the use of anesthetics (Schedule 1 procedure in accordance with UK Animal Scientific Procedure Act, 1986) and demembranated right ventricular trabeculae were prepared as described previously.
BSR-cRLCs were exchanged into demembranated trabeculae by extraction in CDTA-rigor solution (composition in mmol L^−1: 5 CDTA, 50 KCl, 40 Tris-HCl pH 8.4, 0.1% (v/v) Triton X-100) for 30 min followed by reconstitution with 40 μmol L^−1 BSR-cRLC in relaxing solution (composition in mmol L^−1: 25 Imidazole, 15 Na2Creatine phosphate (Na2CrP), 78.4 KPropionate (KPr), 5.65 Na2ATP, 6.8 MgCl2, 10 K2EGTA, 1 DTT, pH 7.1) for 1 h, replacing ~50% of the endogenous cRLC[40],[64].
The sarcomere length of trabeculae was adjusted to 2.1 μm by laser diffraction in relaxing solution prior to each activation. […] Each activation was preceded by a 2-min incubation in pre-activating solution (composition in mmol L^−1: 25 Imidazole, 15 Na2CrP, 108.2 KPr, 5.65 Na2ATP, 6.3 MgCl2, 0.2 K2EGTA, 1 DTT, pH 7.1). Solutions with varying concentrations of free [Ca^2+] were prepared by mixing relaxing and activating solutions using MAXCHELATOR software (maxchelator.stanford.edu). Isometric force and steady-state fluorescence polarization values were measured once steady force had been established. The dependence of force and order parameters on free calcium concentration was fitted to data from individual trabeculae using non-linear least-squares regression to the modified Hill Eq. (1):1 F=Y0+A⋅([Ca^2+]^nH)/(−log10[pCa50]^nH+[Ca^2+]^nH) where pCa50 is the negative logarithm of [Ca^2+] corresponding to half-maximal change in F, nH is the Hill coefficient, Y0 is the baseline, and A is the amplitude (for normalized force data: Y0 = 0 and A = 1).

[8] = tested on: cyclic GMP-AMP synthase; parameters: method as in PubChem; details: ref PubChem; cited from earlier work

T1 sequence (Q9BE39 85-778 limits assumed): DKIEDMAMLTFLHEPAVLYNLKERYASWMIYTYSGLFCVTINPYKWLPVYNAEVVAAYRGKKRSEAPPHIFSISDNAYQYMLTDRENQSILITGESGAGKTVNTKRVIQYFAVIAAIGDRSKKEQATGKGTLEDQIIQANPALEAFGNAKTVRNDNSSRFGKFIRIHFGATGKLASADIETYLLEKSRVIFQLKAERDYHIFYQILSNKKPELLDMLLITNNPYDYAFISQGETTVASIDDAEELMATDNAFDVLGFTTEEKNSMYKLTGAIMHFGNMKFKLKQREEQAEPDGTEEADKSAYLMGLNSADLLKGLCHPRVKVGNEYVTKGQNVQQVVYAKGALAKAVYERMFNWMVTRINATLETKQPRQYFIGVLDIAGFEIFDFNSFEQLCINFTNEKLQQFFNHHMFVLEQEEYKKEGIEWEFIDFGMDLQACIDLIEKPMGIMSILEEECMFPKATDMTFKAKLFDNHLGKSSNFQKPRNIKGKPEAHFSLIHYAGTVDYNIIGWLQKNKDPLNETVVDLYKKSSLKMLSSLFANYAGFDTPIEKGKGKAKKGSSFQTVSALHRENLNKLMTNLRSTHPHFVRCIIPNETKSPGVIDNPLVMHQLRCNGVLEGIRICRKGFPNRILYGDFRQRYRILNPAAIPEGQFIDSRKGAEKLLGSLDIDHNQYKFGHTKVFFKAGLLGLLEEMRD
T1 sequence (P85100 whole entry partner, the tested form may be a part): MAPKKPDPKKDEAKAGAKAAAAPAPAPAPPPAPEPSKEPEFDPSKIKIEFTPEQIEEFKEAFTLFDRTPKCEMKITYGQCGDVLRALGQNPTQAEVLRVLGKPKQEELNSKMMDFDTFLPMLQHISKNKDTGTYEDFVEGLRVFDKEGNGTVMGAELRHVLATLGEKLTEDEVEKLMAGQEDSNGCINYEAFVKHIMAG
Sequence of bovine cardiac myofibrils (CMF) (Q9BE39 whole entry): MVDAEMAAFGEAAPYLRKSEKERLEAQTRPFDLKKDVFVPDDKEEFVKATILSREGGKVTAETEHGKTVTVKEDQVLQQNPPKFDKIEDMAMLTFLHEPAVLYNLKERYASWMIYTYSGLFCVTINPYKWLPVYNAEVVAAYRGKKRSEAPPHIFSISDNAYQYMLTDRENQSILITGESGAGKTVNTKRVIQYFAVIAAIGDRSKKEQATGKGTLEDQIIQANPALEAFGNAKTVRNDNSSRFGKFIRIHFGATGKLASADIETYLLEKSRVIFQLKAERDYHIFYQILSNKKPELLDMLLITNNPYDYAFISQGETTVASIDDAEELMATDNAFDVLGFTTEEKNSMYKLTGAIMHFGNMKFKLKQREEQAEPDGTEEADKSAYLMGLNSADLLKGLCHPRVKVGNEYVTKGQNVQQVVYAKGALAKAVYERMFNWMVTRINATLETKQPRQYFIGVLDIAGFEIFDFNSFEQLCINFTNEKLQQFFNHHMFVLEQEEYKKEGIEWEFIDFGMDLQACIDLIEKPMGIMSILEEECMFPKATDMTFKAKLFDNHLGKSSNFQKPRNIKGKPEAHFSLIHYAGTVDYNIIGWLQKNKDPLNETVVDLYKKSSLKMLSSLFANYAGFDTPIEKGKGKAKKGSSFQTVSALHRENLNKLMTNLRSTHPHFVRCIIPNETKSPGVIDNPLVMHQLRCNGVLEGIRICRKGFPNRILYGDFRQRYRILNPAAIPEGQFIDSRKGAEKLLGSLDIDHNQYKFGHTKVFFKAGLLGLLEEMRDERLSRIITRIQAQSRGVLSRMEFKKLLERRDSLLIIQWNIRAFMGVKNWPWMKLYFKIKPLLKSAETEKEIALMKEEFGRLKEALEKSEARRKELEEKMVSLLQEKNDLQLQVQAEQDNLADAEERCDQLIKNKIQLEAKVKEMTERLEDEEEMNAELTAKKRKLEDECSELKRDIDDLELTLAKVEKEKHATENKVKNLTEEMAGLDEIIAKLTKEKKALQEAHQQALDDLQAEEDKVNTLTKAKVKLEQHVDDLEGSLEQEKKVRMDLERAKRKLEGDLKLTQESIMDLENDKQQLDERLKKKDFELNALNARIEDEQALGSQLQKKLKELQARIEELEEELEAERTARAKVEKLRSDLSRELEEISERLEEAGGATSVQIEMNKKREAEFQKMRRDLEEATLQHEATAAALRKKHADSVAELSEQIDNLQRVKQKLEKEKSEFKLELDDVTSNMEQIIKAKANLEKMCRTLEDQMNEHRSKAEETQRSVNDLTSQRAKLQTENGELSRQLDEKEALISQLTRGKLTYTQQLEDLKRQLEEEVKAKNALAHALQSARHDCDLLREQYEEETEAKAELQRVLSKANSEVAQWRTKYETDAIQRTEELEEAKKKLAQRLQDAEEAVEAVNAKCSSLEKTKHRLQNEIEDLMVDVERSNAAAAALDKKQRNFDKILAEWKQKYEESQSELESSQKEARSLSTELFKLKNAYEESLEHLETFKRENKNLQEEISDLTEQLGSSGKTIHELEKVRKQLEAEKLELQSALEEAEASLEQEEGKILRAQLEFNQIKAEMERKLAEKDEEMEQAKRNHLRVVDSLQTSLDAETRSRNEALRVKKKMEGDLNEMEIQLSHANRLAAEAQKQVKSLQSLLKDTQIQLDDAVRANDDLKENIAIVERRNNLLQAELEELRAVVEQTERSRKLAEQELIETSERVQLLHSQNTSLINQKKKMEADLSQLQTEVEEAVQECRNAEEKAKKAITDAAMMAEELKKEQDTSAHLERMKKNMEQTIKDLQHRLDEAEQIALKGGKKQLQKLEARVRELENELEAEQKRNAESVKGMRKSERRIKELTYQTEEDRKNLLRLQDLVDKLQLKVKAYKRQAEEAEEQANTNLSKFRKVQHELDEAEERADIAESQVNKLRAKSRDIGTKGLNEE
Sequence of bovine cardiac myofibrils (CMF) (P85100 whole entry partner): as the sequence (P85100 whole entry partner, the tested form may be a part) above
Sequence of bovine cardiac myofibrils (CMF) (Q3SZE5 whole entry partner): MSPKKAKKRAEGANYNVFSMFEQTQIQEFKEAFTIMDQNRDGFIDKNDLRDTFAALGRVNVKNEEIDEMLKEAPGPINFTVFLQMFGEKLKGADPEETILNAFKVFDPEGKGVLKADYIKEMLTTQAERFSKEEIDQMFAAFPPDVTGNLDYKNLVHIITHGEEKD

## CC(C)n1c(=O)cc(N[C@@H](C)c2ccccc2)[nH]c1=O [Mavacamten]
[1]
  IC50: ~1 µM

## CCc1cc2c(=O)n(NC(=S)NC(C)C)cnc2s1 [F10]
[2]; 20 μmol L^−1 F10
  decrease in ATPase activity of soleus myofibrils: about 10%
[2]; Soleus (slow), 20 μmol L^-1 F10
  Myofibrilar ATPase [%], change vs control: -10%
[2]; Soleus, 20 μmol L^-1 F10
  Myofibrilar ATPase, individual experiments: 91.7277% and 110.835% and 94.2329% and 93.0845% and 93.8276% and 88.6937% and 89.9096% and 92.8819% and 84.7083% and 101.326% and 81.2354% and 85.1848% and 83.8911% and 92.3346% and 84.6401% and 69.9319% and 80.963% and 77.0136% and 90.9224% and 106.296% and 102.343% and 99.9268% and 89.6779% and 109.737%
[3]
  biological activity in primary screen: without, however, any biological activity
[4]
  IC50: ~24 µM
[4]; suboptimal Ca^2+-activation, about 70% maximal activation
  maximal inhibition of bovine CMF ATPase activity: about 60%
[5]
  biological activity in primary screen: without, however, any biological activity
[6]
  EC50: ~20 µM
  LE (ligand efficiency): 0.34
[6]; 10 μmol L^−1, mean ± s.e.m., n = 4
  reduction of F-actin stimulated ATPase activity: 44 ± 2%
[6]; F-Actin 0 μmol L^−1
  myosin S1 ATPase activity vs F-actin concentration: 0
[6]; F-Actin 6.25 μmol L^−1
  myosin S1 ATPase activity vs F-actin concentration: 0.1565 and 0.1528 and 0.08965 and 0.1313 and 0.1366 and 0.1027 and 0.1063
[6]; F-Actin 80 μmol L^−1
  myosin S1 ATPase activity vs F-actin concentration: 0.417 and 0.4489 and 0.3031
[6]; F10 0.012207 mmol L-1 (so in the source), Experiment # 1-6, read-out: acto-myosin S1 ATPase activity, dose-response
  remaining activity at 12.207 µM: 92.9%
[6]; F10 0.024414 mmol L-1 (so in the source), Experiment # 1-6, read-out: acto-myosin S1 ATPase activity, dose-response
  remaining activity at 24.414 µM: 101%
[6]; F10 0.048828 mmol L-1 (so in the source), Experiment # 1-6, read-out: acto-myosin S1 ATPase activity, dose-response
  remaining activity at 48.828 µM: 99.4%
[6]; F10 0.097656 mmol L-1 (so in the source), Experiment # 1-6, read-out: acto-myosin S1 ATPase activity, dose-response
  remaining activity at 97.656 µM: 92.7%
[6]; F10 0.195313 mmol L-1 (so in the source), Experiment # 1-6, read-out: acto-myosin S1 ATPase activity, dose-response
  remaining activity at […]: 94.4%
[6]; F10 0.390625 mmol L-1 (so in the source), Experiment # 1-6, read-out: acto-myosin S1 ATPase activity, dose-response
  remaining activity at 390.625 µM: 98.9%
[6]; F10 0.78125 mmol L-1 (so in the source), Experiment # 1-6, read-out: acto-myosin S1 ATPase activity, dose-response
  remaining activity at 781.25 µM: 100%
[6]; F10 3.125 mmol L-1 (so in the source), Experiment # 1-6, read-out: acto-myosin S1 ATPase activity, dose-response
  remaining activity at […]: 86.8%
[6]; F10 6.25 mmol L-1 (so in the source), Experiment # 1-6, read-out: acto-myosin S1 ATPase activity, dose-response
  remaining activity at […]: 79.3%
[6]; F10 12.5 mmol L-1 (so in the source), Experiment # 1-6, read-out: acto-myosin S1 ATPase activity, dose-response
  remaining activity at […]: 69.6%
[6]; IC50 acto-myosin S1 ATPase activity, means ± s.e.m., n = 6
  IC50: 21.3 ± 3.4 µM
[6]; dose-response, means ± s.e.m., n = 6
  maximal decrease of actomyosin ATPase activity: 89 ± 5%
[6]; in the presence of 100 μmol/L F10, control about 1.3
  maximal rate of ATP hydrolysis (kcat): about 0.5 s^−1 head^−1
[6]; in the presence of F10 (same in its absence)
  apparent dissociation equilibrium constant for F-actin binding (Kapp): about 20 μmol L^−1
[6]; means ± s.e.m., n = 6, read-out: IC50 acto-myosin S1 ATPase activity
  IC50: 21 ± 3 µM
[6]; single dose 10 μmol L^−1 compound, 10 μmol L^−1 F-actin, Repeat #1-#4, listed as 70
  acto-myosin S1 ATPase activity, normalized to DMSO control: 59 and 55 and 52 and 58
[7]; pCa 4.5
  Normalized force, Force-pCa Titration: 1.00
[7]; pCa 5.5
  Normalized force, Force-pCa Titration: 0.88 and 0.85 and 0.81
[7]; pCa 5.6
  Normalized force, Force-pCa Titration: 0.73 and 0.76 and 0.72
[7]; pCa 5.7
  Normalized force, Force-pCa Titration: 0.48 and 0.55 and 0.53
[7]; pCa 5.8
  Normalized force, Force-pCa Titration: 0.13 and 0.14 and 0.18
[7]; t 0.0001 s
  force re-development, Representative Traces: 0.9946
[7]; t 0.0002 s
  force re-development, Representative Traces: 0.9927
[7]; t 0.0003 s
  force re-development, Representative Traces: 0.9927
[7]; t 0.0004 s
  force re-development, Representative Traces: 0.9927
[7]; Rattus norvegicus, pCa 5.9, about 50% maximal activation, read-out: IC50 active isometric force
  IC50: 9 µM
[7]; in the presence of F10 (20 μM), control 5.88 ± 0.02
  pCa50 of force development: 5.69 ± 0.01 and 5.68 and 5.693 and 5.684
[7]; individual replicates
  Tmin: 2.9 and 4.1 and 1.3 and 4.3 and 4.9
  ktr: 35.4 and 37.1 and 32.7
  nH: 5.8 and 6.0 and 4.9
  pCa50: 5.68 (2×) and 5.69
[7]; pCa 4.5, 20 μmol L^−1 F10
  Isometric force, individual trabeculae: 16.0321 and 19.6135 and 8.993 and 17.2526 and 16.2235
  decrease of maximal active isometric tension: more than 75%
[7]; F10 5 micromolar
  Normalized Force (Tension): 80.6034 % control
[7]; F10 10 micromolar
  Normalized Force (Tension): 50.8621 % control
[7]; F10 20 micromolar
  Normalized Force (Tension): 27.5862 % control
[7]; F10 40 micromolar
  Normalized Force (Tension): 17.2414 % control
[7]; pCa 9, 20 μmol L^−1 F10
  Isometric force, individual trabeculae: 2.857 and 4.07 and 1.256 and 4.268 and 4.903
  effect on passive tension: no effect
[7]; pCa 9, 20 μmol L^−1 F10, control 3.4 ± 0.5
  Tmin (passive tension): 3.5 ± 0.6 mN mm-2
[7]; slack-re-stretch protocol, F10, in s-1 (unit assumed)
  rate of force re-development ktr, individual trabeculae (Bar Graph): 35.4 and 37.11 and 32.67
[7]; slack-re-stretch protocol, in the presence of F10, control 12.0 ± 1.9
  rate of force re-development ktr: 35.1 ± 1.3 s⁻¹ and 35 ± 1 s⁻¹
[8]
  biological activity in primary screen: without, however, any biological activity
